The values below come from US12679824B2 (Hoffmann-La Roche Inc., priority 2020, dated 2026).

What is called IC90 is the point of the concentration-response curve where the effect stands at 90%.

The first assay has as its system Acinetobacter baumannii ATCC17961. Kind of assay: 90% Growth Inhibitory Concentration (IC90) determination, antimicrobial susceptibility testing. Format: cell-based. As to conditions: Acinetobacter baumannii, ATCC17961, 16 h, Acinetobacter baumannii ATCC17961; Iso-Sensitest broth; growth by optical density at 600 nm over 16h; concentration inhibiting 90% of the growth; read-out: ATCC 17961 IC90. Here is the method:
Antimicrobial Susceptibility Testing:
90% Growth Inhibitory Concentration (IC90) Determination
The in vitro antimicrobial activity of the compounds was determined according to the following procedure:
The assay used a 10-points Iso-Sensitest broth medium to measure quantitatively the in vitro activity of the compounds against Acinetobacter baumannii ATCC17961.
Stock compounds in DMSO were serially twofold diluted (e.g. range from 50 to 0.097 μM final concentration) in 384 wells microtiter plates and inoculated with 49 μl the bacterial suspension in Iso-Sensitest medium to have a final cell concentration of ~5×10^(5) CFU/ml in a final volume/well of 50 ul/well. Microtiter plates were incubated at 35±2° C.
Bacterial cell growth was determined with the measurement of optical density at λ=600 nm each 20 minutes over a time course of 16h. Growth inhibition was calculated during the logarithmic growth of the bacterial cells with determination of the concentration inhibiting 50% (IC50) and 90% (IC90) of the growth.
Table 1 provides the 90% growth inhibitory concentrations (IC90) in micromoles per liter of the compounds of present invention obtained against the strain Acinetobacter baumannii ATCC17961.
Take `Cn1c(-c2cn(-c3ccc(N)cn3)nc2C(F)(F)F)cnc1C(=O)Nc1ccc(C(=O)NCC2(NC(=O)[C@@H]3CC(O)CN3)CC2)c(Cl)c1` (stereo in doubt) [Example Z43, 5-[1-(5-amino-2-pyridyl)-3-(trifluoromethyl)pyrazol-4-yl]-N-[3-chloro-4-[[1-[[(2S,4R)-4-hydroxyprolyl]amino]cyclopropyl]methylcarbamoyl]phenyl]-1-methyl-imidazole-2-carboxamide]: the IC90 came to 1220 nM.

On to `Cn1c(-c2cn(-c3ccc(N)nc3)nc2C(F)(F)F)cnc1C(=O)Nc1ccc(C(=O)N2CCN(C(=O)C3CCNCC3)CC2)c(Cl)c1` [Example Z10, 5-[1-(6-amino-3-pyridyl)-3-(trifluoromethyl)pyrazol-4-yl]-N-[3-chloro-4-(4-isonipecotoylpiperazine-1-carbonyl)phenyl]-1-methyl-imidazole-2-carboxamide], for which the IC90 was 330 nM.

With `COc1nn(-c2ccc(N)cn2)cc1-c1cnc(C(=O)Nc2ccc(C(=O)N3CCN(C(=O)C4CCN(C)CC4)CC3)c(Cl)c2)n1C` [Example C10, 5-[1-(5-amino-2-pyridyl)-3-methoxy-pyrazol-4-yl]-N-[3-chloro-4-[4-(1-methylpiperidine-4-carbonyl)piperazine-1-carbonyl]phenyl]-1-methyl-imidazole-2-carboxamide], the IC90 turned out to be 7000 nM.

For the compound `Cn1c(-c2cn(-c3ccc(N)cn3)nc2C(F)(F)F)cnc1C(=O)Nc1ccc(C(=O)N2CCN(C(=O)[C@@H]3COCCN3)CC2)c(Cl)c1` [Example C8, 5-[1-(5-amino-2-pyridyl)-3-(trifluoromethyl)pyrazol-4-yl]-N-[3-chloro-4-[4-[(3S)-morpholine-3-carbonyl]piperazine-1-carbonyl]phenyl]-1-methyl-imidazole-2-carboxamide], the 90% effect concentration (IC90) was found to be 820 nM.

On to `Cn1c(-c2cn(-c3ccc(Cl)nc3)nc2C(F)(F)F)cnc1C(=O)Nc1ccc(C(=O)N2CCN(C(=O)[C@@H]3C[C@@H](O)CN3)CC2)c(Cl)c1` [Example Z30, N-[3-chloro-4-[4-[(2S,4R)-4-hydroxyprolyl]piperazine-1-carbonyl]phenyl]-5-[1-(6-chloro-3-pyridyl)-3-(trifluoromethyl)pyrazol-4-yl]-1-methyl-imidazole-2-carboxamide], for which the IC90 came to 780 nM.

Take `COc1cc(-n2cc(-c3cnc(C(=O)Nc4ccc(C(=O)N5CCN(C(=O)C6CCNCC6)CC5)c(Cl)c4)n3C)c(C(F)(F)F)n2)ccn1` [Example Z73, N-[3-chloro-4-(4-isonipecotoylpiperazine-1-carbonyl)phenyl]-5-[1-(2-methoxy-4-pyridyl)-3-(trifluoromethyl)pyrazol-4-yl]-1-methyl-imidazole-2-carboxamide]: the IC90 was determined as 950 nM.

Regarding `CN(C)c1ccnc(-n2cc(-c3cnc(C(=O)Nc4ccc(C(=O)N5CCN(C(=O)C6CCNCC6)CC5)c(Cl)c4)n3C)c(C(F)(F)F)n2)n1` [Example A17, N-[3-chloro-4-[4-(piperidine-4-carbonyl)piperazine-1-carbonyl]phenyl]-5-[1-[4-(dimethylamino)pyrimidin-2-yl]-3-(trifluoromethyl)pyrazol-4-yl]-1-methyl-imidazole-2-carboxamide], the IC90 is 500 nM.

As for `COCCn1ncc(-n2cc(-c3cnc(C(=O)Nc4ccc(C(=O)N5CCN(C(=O)C6CCNCC6)CC5)c(Cl)c4)n3C)c(C(F)(F)F)n2)c1C` [Example E2, N-[3-chloro-4-[4-(piperidine-4-carbonyl)piperazine-1-carbonyl]phenyl]-5-[1-[1-(2-methoxyethyl)-5-methyl-pyrazol-4-yl]-3-(trifluoromethyl)pyrazol-4-yl]-1-methyl-imidazole-2-carboxamide], the IC90 worked out at 470 nM.

Turning to `Cn1c(-c2cn(-c3ccc(N)cn3)nc2C(F)(F)F)cnc1C(=O)Nc1ccc(C(=O)N2C[C@H]3CN[C@H]3C2)c(Cl)c1` [Example Z70, 5-[1-(5-amino-2-pyridyl)-3-(trifluoromethyl)pyrazol-4-yl]-N-[3-chloro-4-[(1R,5R)-3,6-diazabicyclo[3.2.0]heptane-3-carbonyl]phenyl]-1-methyl-imidazole-2-carboxamide], the IC90 turned out to be 1370 nM.

Turning to `CN(C(=O)c1ccc(NC(=O)c2ncc(-c3cn(-c4ccc(N)cn4)nc3C(F)(F)F)n2C)cc1Cl)C1CCNCC1` [Example Z13, 5-[1-(5-amino-2-pyridyl)-3-(trifluoromethyl)pyrazol-4-yl]-N-[3-chloro-4-[methyl(4-piperidyl)carbamoyl]phenyl]-1-methyl-imidazole-2-carboxamide], the IC90 is 420 nM.

Regarding `Cn1c(-c2cn(-c3nccc(OCCN)n3)nc2C(F)(F)F)cnc1C(=O)Nc1ccc(C(=O)N2CCN(C(=O)C3CCNCC3)CC2)c(Cl)c1` [Example A14, 5-[1-[4-(2-aminoethoxy)pyrimidin-2-yl]-3-(trifluoromethyl)pyrazol-4-yl]-N-[3-chloro-4-[4-(piperidine-4-carbonyl)piperazine-1-carbonyl]phenyl]-1-methyl-imidazole-2-carboxamide], the IC90 is 2200 nM.

On to `Cc1[nH]ncc1-n1cc(-c2cnc(C(=O)Nc3ccc(C(=O)N4CCN(C(=O)C5CCNCC5)CC4)c(Cl)c3)n2C)c(C(F)(F)F)n1` [Example E5, N-[3-chloro-4-[4-(piperidine-4-carbonyl)piperazine-1-carbonyl]phenyl]-1-methyl-5-[1-(5-methyl-1H-pyrazol-4-yl)-3-(trifluoromethyl)pyrazol-4-yl]imidazole-2-carboxamide], for which the IC90 was 1400 nM.

With `Cn1c(-c2cn(-c3ccc(N)cn3)nc2C(F)(F)F)cnc1C(=O)Nc1ccc(C(=O)NCC2CCNCC2)c(Cl)c1` [Example Z3, 5-[1-(5-amino-2-pyridyl)-3-(trifluoromethyl)pyrazol-4-yl]-N-[3-chloro-4-(4-piperidylmethylcarbamoyl)phenyl]-1-methyl-imidazole-2-carboxamide], the IC90 worked out at 500 nM.

Consider `Cn1c(-c2cn(-c3ccc(N)cn3)nc2C(F)(F)F)cnc1C(=O)Nc1ccc(C(=O)N2CCNC3(CC3)C2)c(Cl)c1` [Example Z51, 5-[1-(5-amino-2-pyridyl)-3-(trifluoromethyl)pyrazol-4-yl]-N-[3-chloro-4-(4,7-diazaspiro[2.5]octane-7-carbonyl)phenyl]-1-methyl-imidazole-2-carboxamide], for which the IC90 turned out to be 990 nM.

For the compound `Cn1c(-c2cn(-c3ccc(N)cn3)nc2C(F)(F)F)cnc1C(=O)Nc1ccc(C(=O)N[C@H]2CC[C@H](N)C2)c(Cl)c1` [Example Z16], the IC90 stood at 860 nM.

For the compound `Cn1c(-c2cn(-c3cc(N)c(N)cn3)nc2C(F)(F)F)cnc1C(=O)Nc1ccc(C(=O)N2CCN(C(=O)C3CCNCC3)CC2)c(Cl)c1` [Example Z87, N-[3-chloro-4-[4-(piperidine-4-carbonyl)piperazine-1-carbonyl]phenyl]-5-[1-(4,5-diamino-2-pyridyl)-3-(trifluoromethyl)pyrazol-4-yl]-1-methyl-imidazole-2-carboxamide], the IC90 stood at 540 nM.

Regarding `Cc1cc(-n2cc(-c3cnc(C(=O)Nc4ccc(C(=O)N5CCN(C(=O)C6CCNCC6)CC5)c(Cl)c4)n3C)c(C(F)(F)F)n2)cnc1N` [Example Z77, 5-[1-(6-amino-5-methyl-3-pyridyl)-3-(trifluoromethyl)pyrazol-4-yl]-N-[3-chloro-4-[4-(piperidine-4-carbonyl)piperazine-1-carbonyl]phenyl]-1-methyl-imidazole-2-carboxamide], the IC90 worked out at 410 nM.

With `Cn1c(-c2cn(-c3ccc(N)cn3)nc2C(F)(F)F)cnc1C(=O)Nc1ccc(C(=O)NC2(CN)CC2)c(Cl)c1` [Example Z6, N-[4-[[1-(aminomethyl)cyclopropyl]carbamoyl]-3-chloro-phenyl]-5-[1-(5-amino-2-pyridyl)-3-(trifluoromethyl)pyrazol-4-yl]-1-methyl-imidazole-2-carboxamide], the IC90 turned out to be 930 nM.

Consider `C[C@@H]1CN(C(=O)c2ccc(NC(=O)c3ncc(-c4cn(-c5ccc(N)cn5)nc4C(F)(F)F)n3C)cc2Cl)CCCN1` [Example Z52, 5-[1-(5-amino-2-pyridyl)-3-(trifluoromethyl)pyrazol-4-yl]-N-[3-chloro-4-[(3R)-3-methyl-1,4-diazepane-1-carbonyl]phenyl]-1-methyl-imidazole-2-carboxamide], for which the IC90 was 1270 nM.

The same assay, now with this note: Acinetobacter baumannii, ATCC17961, 16 h, read-out: ATCC 17961 IC90.
In the case of `Cn1c(-c2cn(-c3ncccn3)nc2C(F)(F)F)cnc1C(=O)Nc1ccc(C(=O)N2CCN(C(=O)C3CCNCC3)CC2)c(Cl)c1` [Example A1, N-[3-Chloro-4-[4-(piperidine-4-carbonyl)piperazine-1-carbonyl]phenyl]-1-methyl-5-[1-pyrimidin-2-yl-3-(trifluoromethyl)pyrazol-4-yl]imidazole-2-carboxamide], the IC90 worked out at 690 nM.

As for `Cn1c(-c2cn(-c3ncccn3)nc2C(F)(F)F)cnc1C(=O)Nc1ccc(C(=O)N2CCN(C(=O)C3CCN(CC4CNC4)CC3)CC2)c(Cl)c1` [Example G1, N-[4-[4-[1-(Azetidin-3-ylmethyl)piperidine-4-carbonyl]piperazine-1-carbonyl]-3-chloro-phenyl]-1-methyl-5-[1-pyrimidin-2-yl-3-(trifluoromethyl)pyrazol-4-yl]imidazole-2-carboxamide], the IC90 stood at 390 nM.
